According to patent US20210363254A1, “PHARMACEUTICAL COMBINATIONS” (Novartis AG, priority 2018, published 2021):
Where two headings read alike, the source gives them in different places.

Assays:
[1] = assay type: in vivo
Text: The endpoint for the primary objective is the incidence of Dose Limiting Toxicities (DLTs) during the first cycle of treatment. Although the primary analysis estimates the MTD based on DLT rate, the final preferred dose determination utilizes additional data beyond cycle 1 DLT rate, including later cycle tolerability, PK, PD and anti-tumor activity.
Therefore, dose limiting hematologic toxicities occurring in cycle 2 were also factored into dose escalation decisions during the course of the study, using a non-binding sensitivity model. Table Ex2.4 summarizes the number of dose limiting toxicities during cycle 1 and dose limiting hematologic toxicities in cycle 2 across all the regimens evaluated in solid tumors.
This study utilizes a Bayesian logistic regression model (BLRM) to support dose escalation and estimate the MTD and/or determine the preferred dose for HDM201. The BLRM with escalation with overdose control (EWOC) enables incorporation of available prior information and updates the model parameters based upon new information about observed dose limiting toxicities (DLT) seen in the clinical study. During the course of the dose escalation for regimen 1A and 1B, DLT incidence has been used to update the model and support the decision for the next dose. When during the course of the study it became apparent that HDM201 induced bone marrow toxicity occurred predominantly during cycle 2, a non-binding sensitivity model including cycle 1 DLT and hematologic dose limiting AEs in cycle 2 (weighting all cytopenias equally) was used to guide dose escalation/RDE determinations. Additionally, decisions were at all times based on a synthesis of relevant data available from all dose levels evaluated in the study including low grade toxicities, PK, and PD data (when available) from evaluable patients.

[2] = tested on: human HSAX2655 (liposarcoma) PDX; assay: TGI PK/PD modelling, human HSAX2655 (liposarcoma) PDX rat; assay type: in vivo
Method: (§1) Compartmental population PK modeling of NVP-HDM201 was used to estimate the individual average plasma concentration for Cycle 1 and to allow comparison with preclinical average concentration for tumor stasis derived by PK/PD tumor growth modeling. […] The dashed line at concentration of ≈19 ng/mL represents average tumor stasis determined from PK/PD modeling of preclinical data from a liposarcoma (HSAX2655) patient-derived xenograft rat model.

[3] = tested on: AH1-specific CD8+ T cells; assay: Anti-tumor memory T cell responses: IFN-γ ELISPOT with AH1 peptide and H2Ld-AH1 dextramers on splenocytes; assay type: cell-based, mouse
Text: Consistent with this, we observed an increase in frequency of AH1-specific CD8^+ T cells in spleens of mice treated with HDM201 or combination of HDM201 with anti-PD1 antibody induced responders as detected by H2Ld-AH1 dextramers. (FIGS. 28 and 29).

[4] = assay type: in vivo, human
Method: Pharmacokinetic data have been evaluated throughout the course of the dose escalation. Two HDM201 drug variants have been evaluated during the course of the study (refer to the protocol for further details). […] Furthermore, an integrated analysis of all available HDM201 concentrations was conducted using a population approach. The PK of HDM201 was best described by a 1-compartment PK model with a delayed zero- and first-order absorption process, and a linear clearance. Body weight was identified as a statistically significant covariate on apparent central volume of distribution (Vc/F), in which Vc/F increased with increasing body weight.
To further support the preferred dose for HDM201, compartmental PK modeling was used to estimate the individual average concentration per cycle for the 9 patients treated at 120 mg on regimen 1B (FIG. 15). For the majority of patients (7 out of 9), the estimated average drug concentrations per cycle were near or above the most conservative average tumor stasis concentration of ˜41 ng/mL per cycle determined from PKPD modeling of preclinical data (human SJSA-1 xenograft rat model).
as §1

[5] = tested on: p53 knock out Colon 26 clones; assay: p53 KO Colon26 model; assay type: in vivo, mouse
Method: p53 knock out Colon 26 Clones were grown in the presence of 1 μM HDM201 and screened for p53 expression by western blot, loading 40 μg total protein/sample, using an anti p53 antibody (Cell Signaling CST #2524). p53 negative clones were identified, grown without HDM201 for 4 days and then re-treated with 1 μM HDM201 for 24 hours, along with Colon26 parental cells, to monitor p53 pathway’ response. p53 and p21 changes were monitored by western blot and an 84 gene qPCR array was used to additionally confirm pathway activity (RT2 Profiler PCR Array p53 pathway, Cat No. 330231 PAMM-027ZA Qiagen). Select clones were also submitted for RNASeq analysis.
There was no additional benefit observed when the PD-1/PD-L1 axis was blocked (FIG. 30).

[6] = 1A (d 1 Q3 weeks) 12.5 mg (n = 1)
[7] = 1B (d 1, d 8 of 4 w cycle) 120 mg (n = 9)
[8] = 2A (2 weeks on/2 weeks off) 1 mg (n = 1)
[9] = 2C (1 week on/3 weeks off) 15 mg (n = 8)

COc1ncc(-c2nc3c(n2C(C)C)[C@H](c2ccc(Cl)cc2)N(c2cc(Cl)cn(C)c2=O)C3=O)c(OC)n1 [HDM201, (S)-5-(5-Chloro-1-methyl-2-oxo-1,2-dihydro-pyridin-3-yl)-6-(4-chloro-phenyl)-2-(2,4-dimethoxy-pyrimidin-5-yl)-1-isopropyl-5,6-dihydro-1H-pyrrolo[3,4-d]imidazol-4-one]
DLTs (cycle 1) ([1]; 1A 25 mg (n = 1)): 0
Hematologic dose limiting toxicities (cycle 2) ([1]; 1A 25 mg (n = 1)): 0
DLTs (cycle 1) ([1]; 1A 50 mg (n = 4)): 0
Hematologic dose limiting toxicities (cycle 2) ([1]; 1A 50 mg (n = 4)): 1
DLTs (cycle 1) ([1]; 1A 100 mg (n = 4)): 0
Hematologic dose limiting toxicities (cycle 2) ([1]; 1A 100 mg (n = 4)): 0
DLTs (cycle 1) ([1]; 1A 200 mg (n = 5)): 0
Hematologic dose limiting toxicities (cycle 2) ([1]; 1A 200 mg (n = 5)): 1
DLTs (cycle 1) ([1]; 1A 250 mg (n = 6)): 0
Hematologic dose limiting toxicities (cycle 2) ([1]; 1A 250 mg (n = 6)): 1
DLTs (cycle 1) ([1]; 1A 350 mg (n = 5)): 2
Hematologic dose limiting toxicities (cycle 2) ([1]; 1A 350 mg (n = 5)): 2
DLTs (cycle 1) [1, 6]: 0
Hematologic dose limiting toxicities (cycle 2) [1, 6]: 0
DLTs (cycle 1) ([1]; 1B 150 mg (n = 8)): 1
Hematologic dose limiting toxicities (cycle 2) ([1]; 1B 150 mg (n = 8)): 1
DLTs (cycle 1) ([1]; 1B 200 mg (n = 3)): 0
DLTs (cycle 1) [1, 7]: 0
Hematologic dose limiting toxicities (cycle 2) [1, 7]: 2
DLTs (cycle 1) ([1]; 2A 2 mg (n = 2)): 0
Hematologic dose limiting toxicities (cycle 2) ([1]; 2A 2 mg (n = 2)): 0
DLTs (cycle 1) ([1]; 2A 4 mg (n = 4)): 0
Hematologic dose limiting toxicities (cycle 2) ([1]; 2A 4 mg (n = 4)): 0
DLTs (cycle 1) ([1]; 2A 7.5 mg (n = 4)): 0
Hematologic dose limiting toxicities (cycle 2) ([1]; 2A 7.5 mg (n = 4)): 0
DLTs (cycle 1) ([1]; 2A 15 mg (n = 4)): 0
Hematologic dose limiting toxicities (cycle 2) ([1]; 2A 15 mg (n = 4)): 1
DLTs (cycle 1) ([1]; 2A 20 mg (n = 5)): 0
Hematologic dose limiting toxicities (cycle 2) ([1]; 2A 20 mg (n = 5)): 4
DLTs (cycle 1) [1, 8]: 0
Hematologic dose limiting toxicities (cycle 2) [1, 8]: 0
DLTs (cycle 1) ([1]; 2C 20 mg (n = 6)): 0
Hematologic dose limiting toxicities (cycle 2) ([1]; 2C 20 mg (n = 6)): 0
DLTs (cycle 1) ([1]; 2C 25 mg (n = 5)): 2
Hematologic dose limiting toxicities (cycle 2) ([1]; 2C 25 mg (n = 5)): 0
DLTs (cycle 1) [1, 9]: 0
Hematologic dose limiting toxicities (cycle 2) [1, 9]: 1
Median DLT rate, per protocol analysis ([1]; BLRM, regimen 1B 120 mg): 3.5%
Median DLT rate, sensitivity analysis ([1]; BLRM, regimen 1B 120 mg): 25.7%
RDE for patients with solid tumors ([1]; D1 and D8 of each 28 day cycle): 120 mg
DLTs (cycle 1), Total ([1]; regimen 1A, N = 26): 2
Hematologic dose limiting toxicities (cycle 2), Total ([1]; regimen 1A, N = 26): 5
dose up to which BLRM (cycle 1 DLT events) supported escalation ([1]; regimen 1B): up to 400 mg
events of prolonged neutropenia meeting DLT criteria ([1]; regimen 1B 150 mg, onset on day 22, lasting 18 days): One
DLTs (cycle 1), Total ([1]; regimen 1B, N = 20): 1
Hematologic dose limiting toxicities (cycle 2), Total ([1]; regimen 1B, N = 20): 3
DLTs (cycle 1), Total ([1]; regimen 2A, N = 20): 0
Hematologic dose limiting toxicities (cycle 2), Total ([1]; regimen 2A, N = 20): 5
DLTs (cycle 1), Total ([1]; regimen 2C, N = 19): 2
Hematologic dose limiting toxicities (cycle 2), Total ([1]; regimen 2C, N = 19): 1
Dose-limiting toxicities (type) ([1]; typically occurring during Cycle 2): neutropenia and thrombocytopenia
Average concentration for tumor stasis [2]: 19 ng/mL
Average concentration for tumor stasis ([2]; listed as NVP-HDM201): ≈ 19 ng/mL
frequency of AH1-specific CD8+ T cells in spleens (H2Ld-AH1 dextramers) ([3]; responder mice): increase
antigen-specific production of IFN-γ by T cells (ELISPOT) ([3]; splenocytes of responder mice stimulated with AH1 peptide): detected in all responders
steady-state reached ([4]; daily dosing): ≤ 8 days
median time to reach maximum plasma concentrations (Tmax) ([4]; dose range 2 to 350 mg): 2 to 5.8 h
accumulation upon daily dosing ([4]; human, in vivo): limited accumulation
patients with estimated average drug concentration per cycle near or above ~41 ng/mL ([4]; regimen 1B 120 mg, compartmental PK modeling): 7 out of 9
tumor growth inhibition [5]: not able to inhibit tumor growth
